Results from patent US10420844B2, “Peptide pharmaceuticals” (Mederis Diabetes LLC, priority 2011, dated 2019).

How the values were obtained:
[1] = molecular target: T1, mu opioid receptor (Homo sapiens, UniProt P35372); experiment: mu opioid receptor cellular assay (MOP, agonist and antagonist mode), cAMP readout, Cerep; type: cell-based
T1 construct: Cerep SA (contract research organization)
Method: (§1) Compounds were weighed precisely in an amount of approximately 2 mg and assayed in standard cellular assays by the contract research organization Cerep, Inc. (Pullman, Wash.) as executed at their subsidiary, Cerep SA (Le Bois l'Eveque, France). The readout is the amount of cAMP generated in the cells treated with the test compounds, in either agonist or antagonist mode. The assays used were the mu opioid receptor cellular assay (MOP in agonist and antagonist mode), the delta2 opioid receptor cellular assay (DOP in agonist and antagonist mode) and the kappa opioid receptor cellular assay (KOP in agonist and antagonist mode). The assays used are described in Wang, J. B., et al. (1994) FEBS Lett 338: 217-222, Law, P. Y. and Loh, H. H. (1993) Mol Pharmacol 43: 684-693, and Avidor-Reiss, T., et al. (1995) FEBS Lett 361: 70-74. The stimulant for the cells in the DOR antagonist assay was 3×10E-8M DPDPE, a well-accepted DOR literature standard.

[2] = molecular target: T2, delta2 opioid receptor (Mus musculus, UniProt P32300); experiment: delta2 opioid receptor cellular assay (DOP, agonist and antagonist mode), cAMP readout, Cerep; type: cell-based; details: in competition with 30 nM DPDPE
T2 construct: Cerep SA (contract research organization)
Method: as §1

T1 sequence (P35372 whole entry): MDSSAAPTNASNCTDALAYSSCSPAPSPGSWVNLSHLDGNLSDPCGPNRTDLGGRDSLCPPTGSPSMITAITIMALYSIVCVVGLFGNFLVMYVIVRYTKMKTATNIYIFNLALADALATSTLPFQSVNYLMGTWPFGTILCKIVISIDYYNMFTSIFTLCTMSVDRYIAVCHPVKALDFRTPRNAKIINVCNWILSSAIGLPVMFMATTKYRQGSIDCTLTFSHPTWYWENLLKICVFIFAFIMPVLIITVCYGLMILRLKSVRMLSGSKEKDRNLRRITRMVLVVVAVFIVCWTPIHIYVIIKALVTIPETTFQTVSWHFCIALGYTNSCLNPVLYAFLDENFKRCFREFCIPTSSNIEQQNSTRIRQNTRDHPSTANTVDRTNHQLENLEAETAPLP
T2 sequence (P32300 whole entry): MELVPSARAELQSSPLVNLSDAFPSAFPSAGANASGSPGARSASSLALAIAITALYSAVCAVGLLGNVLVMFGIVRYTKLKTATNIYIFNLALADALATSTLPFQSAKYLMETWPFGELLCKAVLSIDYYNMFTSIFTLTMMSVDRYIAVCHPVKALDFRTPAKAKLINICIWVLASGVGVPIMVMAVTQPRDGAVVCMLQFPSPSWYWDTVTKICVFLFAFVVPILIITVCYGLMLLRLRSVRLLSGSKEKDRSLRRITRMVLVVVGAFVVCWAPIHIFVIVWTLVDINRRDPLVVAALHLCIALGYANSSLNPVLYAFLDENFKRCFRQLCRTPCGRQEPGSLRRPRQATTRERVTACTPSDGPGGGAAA

Substance: 2′,6′-dimethyl-L-tyrosyl-L-1,2,3,4-tetrahydroisoquinoline-3-carbonyl-L-phenylalanyl-Nε-(1′-methyl R-D-glucuronyl)-L-lysyl-amide [EU-A178]
- behavior in the MOP agonist assay (FIG. 11) [1]: potent, full agonistic behavior
- Characterization ([1]; MOP agonist mode and DOP antagonist mode): Pure MOP Ag; pure DOP antag
- action on the DOP receptor (FIG. 11) [2]: highly potent action as a pure antagonist
